# Bridge positions count the residues as written; N and C are the ends. Peptide text beside a SMILES is read from it.
# Assays:
# [1] = system: MRSA USA300 cells; experiment: ATP depletion assay; assay type: cell-based, Staphylococcus aureus; conditions: P = 0.018 (HG2) and 0.003 (HG4)
# Description: Adenosine triphosphate (ATP) drives many cellular and metabolic processes and can be used to ascertain the integrity of cells. […] Briefly, in a clear 96-well plate, samples and ATP standard provided with the kit were added in a reaction mix containing ATP assay buffer, ATP Probe and Converter and Developer mix. The reaction mix was incubated in the dark at room temperature for 30 min. Absorbance (570 nm0 was then measured in a microplate spectrophotometer. The background ATP levels obtained from samples and ATP standards were autocorrected by subtracting ATP levels from blank treatments. The amount of ATP in unknown samples was determined from the ATP standard curve and calculated using the formula in the instruction manual. All measurements were performed in triplicates.
# [2] = Peptide-lipid interaction and insertion, lipid monolayer; assay type: binding, E. coli; conditions: LPS; for Speed of insertion: initial surface pressure 30+/-0.5 mN/m; for Critical pressure of insertion πc: peptide 1 µg/mL
# Description: Peptide–lipid interaction was measured using a lipid monolayer formed at the air:water interface with total lipid extracts and pure lipids. Total lipids were extracted from overnight cultures of MRSA or human erythrocytes using the Folch extraction procedure[14],[40]. Extracted total lipids were dried, re-solubilised in chloroform:methanol (2:1, v/v) and stored at −20 °C under nitrogen. Pure prokaryotic and eukaryotic lipids used were: cardiolipin, POPC (1-palmitoyl-2-oleoyl-glycero-3-phosphocholine), POPE (1-palmitoyl-2-oleoyl-sn-glycero-3-phosphoethanolamine) and POPG (1-palmitoyl-2-oleoyl-sn-glycero-3-phospho-(1’-rac-glycerol) (Avanti Polar Lipid). LTA (Lipoteichoic acid from S. aureus) and LPS (lipopolysaccharide from E. coli) (Invitrogen, UK) were also tested. Pure lipids were reconstituted in chloroform:methanol (2:1 v/v) at 1 mg/ml and stored at −20 °C under nitrogen. For peptide–lipid interaction assay, lipid monolayers at the air:water interface were formed by spreading total lipid extract or pure lipids at the surface of 800 µl of sterile PBS using a 50 µl Hamilton’s syringe. Lipids were added until the surface pressure reached the desired value. After 5–10 min of incubation allowing the evaporation of the solvent and stabilisation of the initial surface pressure, 8 µl of HG2 or HG4 diluted in sterile PBS at 100 µg/ml were injected into the 800 µl sub-phase of PBS under the lipid monolayer (pH 7.4, volume 800 µl) using a 10 µl Hamilton’s syringe giving a final concentration of peptide of 1 µg/ml, as preliminary experiments had shown that this concentration was optimal. The variation of the surface pressure caused by peptide insertion was then continuously monitored using a fully automated microtensiometer (µTROUGH SX, Kibron Inc, Finland) until it reached equilibrium (maximal surface pressure increase is usually obtained after 15–25 min). To reflect physiological situations, the initial surface pressure was fixed at 30 ± 0.5 mN/m in some experiments as this value corresponds to a lipid packing density theoretically equivalent to that of the outer leaflet of the eukaryotic and prokaryotic cell membrane. In other experiments, the critical pressure of insertion of HG2 or HG4 in the total lipid extracts and pure lipids was measured as follows[14],[56]. Briefly, in these experiments, the initial pressure of the lipid monolayer was set up at different values (between 10 and 30 mN/m) and the variation of pressure caused by the injection of the peptide was measured. […] All experiments were carried out in a controlled atmosphere at 20 ± 1 °C and data were analyzed using the Firmware 2.5 programme (Kibron Inc.). The accuracy of the system under our experimental conditions was determined to be ±0.25 mN/m for surface pressure measurements.
# [3] = system: S. aureus MRSA USA300 cells; experiment: Transcriptomic analysis (RNA-Seq, DESeq2); assay type: cell-based, Staphylococcus aureus; conditions: MIC concentration for 60 min; p <0.05, abs(log2FC)> 2
# Description: The mechanism of action and effects of HG2 and HG4 against S. aureus MRSA USA300 was investigated using transcriptomics analysis[57],[58]. […] The increased sample volume and limited treatment time of 60 min served to maintain the quality and yield of RNA. Untreated cells served as control. Cells were washed and resuspended in PBS and then RNAprotect Bacteria Reagent (QIAGEN, Hilden, Germany) was added and pelleted. This was followed by incubation in Tris-EDTA buffer containing Proteinase K and Bacterial Lysis Mix (Mutanolysin and Lysozyme) at room temperature for 10 min addition. Thereafter, RNA extraction was performed using the Qiagen RNeasy Plus Mini Kit following the manufacturer’s protocol (Qiagen, Manchester, UK). RNA was quantified using a Qubit™ fluorometer with a broad range RNA kit (Invitrogen, USA), according to the manufacturer’s instructions. All experiments were carried out in triplicates. […]
# Analysis of sequencing data was carried out using the Geneious Prime® (2021.1.1) software (Biomatters Ltd, New Zealand)[59]. Firstly, all raw paired-end fastq reads passing quality check by FastQC v0.11.9 were mapped to the reference genome (Staphylococcus aureus subsp. aureus USA300_TCH1516 downloaded from the NCBI website), using Geneious RNA-Seq mapper. […]
Compound,effect on ATP concentration [1],Speed of insertion [2] [mN/m/10 sec],Critical pressure of insertion πc [2] [mN/m],number of differentially expressed genes (DEGs) [3]
CC[C@H](C)[C@H](NC(=O)[C@H](CC(C)C)NC(=O)[C@H](CC(C)C)NC(=O)[C@H](CC(C)C)NC(=O)[C@H](CCCCN)NC(=O)[C@H](CCCCN)NC(=O)[C@@H](N)CCSC)C(=O)N[C@@H](CC(C)C)C(=O)N[C@@H](Cc1ccccc1)C(=O)N[C@H]1CSSC[C@@H](C(=O)N[C@@H](CCCCN)C(=O)N[C@@H](CCCCN)C(=O)N[C@@H](C)C(=O)N2CCC[C@H]2C(N)=O)NC(=O)CNC(=O)[C@H](C)NC(=O)[C@H](CC(C)C)NC(=O)[C@H](C)NC(=O)[C@H](CC(C)C)NC(=O)[C@H](C)NC(=O)[C@H](CC(C)C)NC1=O [HG2] (H-MKKLLLILFCLALALAGCKKAP-NH2; disulfide 10-18; N-terminus assumed),decrease in ATP concentration,0.43,36.03,114
CC[C@H](C)[C@H](NC(=O)[C@H](CC(C)C)NC(=O)[C@H](CC(C)C)NC(=O)[C@H](C)NC(=O)CNC(=O)CNC(=O)[C@@H](NC(=O)[C@@H](NC(=O)[C@H](CC(C)C)NC(=O)[C@H](C)NC(=O)[C@H](CC(C)C)NC(=O)CNC(=O)[C@H](CC(C)C)NC(=O)[C@@H](N)C(C)C)[C@@H](C)CC)C(C)C)C(=O)N[C@@H](CCCCN)C(=O)N[C@@H](CCCCN)C(=O)N[C@@H](CCCCN)C(=O)N[C@@H](CCC(N)=O)C(=O)N[C@@H](C)C(=O)N[C@@H](CCCCN)C(=O)N[C@@H](CO)C(N)=O [HG4] (H-VLGLALIVGGALLIKKKQAKS-NH2; N-terminus and C-terminus assumed),decrease in ATP concentration,0.31,34.08,123

# — paper PMC9283466, “In silico identification of two peptides with antibacterial activity against multidrug-resistant Staphylococcus aureus” (NPJ Biofilms and Microbiomes, 2022)
